Values joined by “and” are separate entries in the source; they are usually repeats but may differ in a detail not shown here. Identical values can stand only once.

For this experiment, the system named is HT29 xenograft, nude mice, s.c., tumor weight T/C%. Description: NCI In Vivo Anticancer Drug Screen. Data for tumor model HT29;CX-1 Human Adenocarcinoma (MER+) (subcutaneous) in NU/NU Swiss (nude) mice. The conditions noted are these: endpoint: optimum tumor weight change, higher = larger tumour. The protocol: The antitumor activity of compounds was measured in mice bearing transplantable tumors. Survival or tumor size were measured and the results are expressed as the measurement made in the treated group (T) divided by the measurement made in the vehicle treated control group (C). The tumor model used in this assay is HT29;CX-1 Human Adenocarcinoma (MER+) (subcutaneous) in NU/NU Swiss (nude) mice

For `Cc1c(N)nc([C@H](CC(N)=O)NC[C@H](N)C(N)=O)nc1C(=O)N[C@H](C(=O)N[C@H](C)[C@@H](O)CC(=O)N[C@H](C(=O)NC(O[C@@H]1O[C@@H](C)[C@@H](N)[C@@H](O)[C@H]1O)C(O)c1nc(-c2nc(C(=O)NCCCCN)cs2)cs1)[C@@H](C)O)[C@@H](O[C@@H]1O[C@@H](CO)[C@@H](O)[C@H](O)[C@@H]1O[C@H]1O[C@H](CO)[C@@H](O)[C@H](OC(N)=O)[C@@H]1O)c1c[nH]cn1` (stereo not given in full), the T/C was 47 % of control (dose: 4.0 mg/kg/injection, schedule: Q04DX003 (ip), vehicle: saline); 27 % of control (dose: 8.0 mg/kg/injection, schedule: Q04DX003 (ip), vehicle: saline); 7 % of control (dose: 16.0 mg/kg/injection, schedule: Q04DX003 (ip), vehicle: saline).

`CC(C)CCCCCCCCCCCCC(=O)NCC(=O)NC1C(O)C(O)C(Nc2ncnc3nc[nH]c23)OC1C(O)CO` (stereo not given): the T/C (dose: 3.0 mg/kg/injection, schedule: Q04DX003 (ip), vehicle: suspension in saline) is 108 % of control and 110 % of control; the T/C (dose: 6.0 mg/kg/injection, schedule: Q04DX003 (ip), vehicle: suspension in saline) is 67 % of control and 79 % of control; the T/C (dose: 12.0 mg/kg/injection, schedule: Q04DX003 (ip), vehicle: suspension in saline) is 16 % of control and 40 % of control.

For `CC(=O)OCC(=O)[C@@]12OC(C)(C)O[C@@H]1C[C@H]1[C@@H]3CC(C=O)=C4C=C(OCCCl)CC[C@]4(C)[C@@]3(F)[C@@H](O)C[C@@]12C`, the T/C (dose: 25.0 mg/kg/injection, schedule: Q04DX003 (ip), vehicle: Klucel (hydroxypropylcellulose) (HPC)) is 52 % of control and 59 % of control.

`CC(=O)c1c(O)c(C)c(O)c2c1OC1=CC(=O)C(C(C)=O)C(=O)C12C` (stereo not given): the T/C was 88 % of control (dose: 50.0 mg/kg/injection, schedule: Q01DX003 (ip), vehicle: sodium bicarbonate); 97 % of control (dose: 100.0 mg/kg/injection, schedule: Q01DX003 (ip), vehicle: sodium bicarbonate); 82 % of control (dose: 200.0 mg/kg/injection, schedule: Q01DX003 (ip), vehicle: sodium bicarbonate).

As usually defined, the T/C is the ratio of treated to control.

Source of the values: PubChem BioAssay AID202 (DTP/NCI, 2004).
